Data: patent US20060093690A1, “Novel therapeutic use of polypodium extracts” (Especialidades Farmaceuticas Centrum, S.A., priority 2002, published 2006)

Experiments:
Peyronie's patients [1] = conditions: 60 patients, 10 months; cited from earlier work
TFG-β expression = conditions: rats, Peyronie's disease by injection of TGF-β in penis; cited from earlier work
Peyronie's patients [2] = assay: Clinical trial on 34 Peyronie's patients for 6 months, Polypodium versus Tamoxifen; type: in vivo, human
Experimental: (§1) The obtained results were statically significant.
(§2) The patients of Polypodium group were treated with 720 mg of Polypodium extract, orally, at 8-hourly intervals.
(§3) The patients of Tamoxifen group were treated with 20 mg of Tamoxifen, orally, at 24-hourly intervals.
The age was similar in both groups.
The plaque was assessed by physical examination and penis ecography.
Penis incurvation was assessed by photograph.

TGF-β = TGF-β production in Peyronie's patients post treatment; type: in vivo, human; conditions: compared with initial values, Tamoxifen group
Experimental: as §1, §2, §3
A 22% post treatment decrease in TGF-β production was found in Polypodium group when compared with initial values, against 5% in Tamoxifen group.

IL-10 = IL-10 production in Peyronie's patients post treatment; type: in vivo, human; conditions: compared with initial values
Experimental: as §1, §2, §3
Also, a 17% post treatment decrease in IL-10 production in Polypodium group when compared with initial values, against 79% in Tamoxifen group.

[3] = on administration; cited from earlier work
Peyronie's disease = conditions: comparative clinical study; cited from earlier work
[4] = 6 months, oral, assessed by photograph
[5] = 6 months, oral, physical examination and penis ecography

Compound: COc1cc2c(c(OC)c1OC)-c1ccc(OC)c(=O)cc1[C@@H](NC(C)=O)CC2 [colchicin]
- penis incurvature improved, % of patients (Peyronie's patients [1]): 30%
- penis incurvature no change/unchanged, % of patients (Peyronie's patients [1]): 48%
- penis incurvature worse/deteriorated, % of patients (Peyronie's patients [1]): 22%
- effect on TFG-β expression (TFG-β expression): reduces TFG-β expression

Compound: CC/C(=C(\c1ccccc1)c1ccc(OCCN(C)C)cc1)c1ccccc1 [Tamoxifen]
- Coital difficulty, Improv, % of patients (Peyronie's patients [2]; 6 months, oral): 40%
- Coital difficulty, Improv, number of patients (Peyronie's patients [2]; 6 months, oral): 6
- Coital difficulty, Same, % of patients (Peyronie's patients [2]; 6 months, oral): 20%
- Coital difficulty, Same, number of patients (Peyronie's patients [2]; 6 months, oral): 3
- Coital difficulty, Worse, % of patients (Peyronie's patients [2]; 6 months, oral): 40%
- Coital difficulty, Worse, number of patients (Peyronie's patients [2]; 6 months, oral): 6
- Pain, Improv, % of patients (Peyronie's patients [2]; 6 months, oral): 66%
- Pain, Improv, number of patients (Peyronie's patients [2]; 6 months, oral): 10
- Pain, Same, % of patients (Peyronie's patients [2]; 6 months, oral): 33%
- Pain, Same, number of patients (Peyronie's patients [2]; 6 months, oral): 5
- Pain, Worse, number of patients (Peyronie's patients [2]; 6 months, oral): 0
- Penis incurvation, Same, % of patients (Peyronie's patients [2]; 6 months, oral): 33%
- Penis incurvation, Same, number of patients (Peyronie's patients [2]; 6 months, oral): 5
- Penis incurvation, Worse, % of patients (Peyronie's patients [2]; 6 months, oral): 20%
- Penis incurvation, Worse, number of patients (Peyronie's patients [2]; 6 months, oral): 3
- Plaque, Same, % of patients (Peyronie's patients [2]; 6 months, oral): 53%
- Plaque, Same, number of patients (Peyronie's patients [2]; 6 months, oral): 8
- Plaque, Worse, % of patients (Peyronie's patients [2]; 6 months, oral): 20%
- Plaque, Worse, number of patients (Peyronie's patients [2]; 6 months, oral): 3
- Penis incurvation, Improv, % of patients (Peyronie's patients [2]; [4]): 46%
- Penis incurvation, Improv, number of patients (Peyronie's patients [2]; [4]): 7
- Plaque, Improv, % of patients (Peyronie's patients [2]; [5]): 27%
- Plaque, Improv, number of patients (Peyronie's patients [2]; [5]): 4
- patients of group satisfied after treatment (Peyronie's patients [2]; after treatment): 45%
- post treatment decrease in TGF-β production (TGF-β): 5%
- post treatment decrease in IL-10 production (IL-10): 79%
- adverse effects [3]: diminution of sexual desire and diminution of the eyaculate
- results versus placebo (Peyronie's disease): similar
